Source: patent US10660877B2 (BRISTOL-MYERS SQUIBB COMPANY, priority 2016, dated 2020)

Key:
human TLR7 = human TLR7 (Homo sapiens (Human), UniProt Q9NYK1); experiment: TLR7 inhibition reporter assay (HEK-Blue cells, SEAP reporter, gardiquimod stimulation); assay type: cell-based; details: HEK-Blue cells overexpressing human TLR7, gardiquimod 7.5 μM
human TLR8 = human TLR8 (Homo sapiens (Human), UniProt Q9NR97); experiment: TLR8 inhibition reporter assay (HEK-Blue cells, SEAP reporter, R848 stimulation); details: read-out: TLR8 IC50, HEK-Blue cells overexpressing human TLR8, R848 15.9 μM;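 further: compounds tested from 0.05 nM to 50 µM, 22 h at 37 °C, SEAP measured with HEK-Blue Detection, inhibition relative to agonist plus DMSO versus a known inhibitor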
human TLR9 = human TLR9 (Homo sapiens (Human), UniProt Q9NR96); experiment: TLR9 inhibition reporter assay (HEK-Blue cells, SEAP reporter, ODN2006 stimulation); details: read-out: TLR9 IC50, HEK-Blue cells overexpressing human TLR9, ODN2006 5 nM;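 further: compounds tested over 0.05 nM to 50 µM, 22 h incubation, inhibition taken as SEAP signal drop from agonist plus DMSO wells toward a known inhibitor control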
Chain of human TLR9 (Q9NR96 26-1032): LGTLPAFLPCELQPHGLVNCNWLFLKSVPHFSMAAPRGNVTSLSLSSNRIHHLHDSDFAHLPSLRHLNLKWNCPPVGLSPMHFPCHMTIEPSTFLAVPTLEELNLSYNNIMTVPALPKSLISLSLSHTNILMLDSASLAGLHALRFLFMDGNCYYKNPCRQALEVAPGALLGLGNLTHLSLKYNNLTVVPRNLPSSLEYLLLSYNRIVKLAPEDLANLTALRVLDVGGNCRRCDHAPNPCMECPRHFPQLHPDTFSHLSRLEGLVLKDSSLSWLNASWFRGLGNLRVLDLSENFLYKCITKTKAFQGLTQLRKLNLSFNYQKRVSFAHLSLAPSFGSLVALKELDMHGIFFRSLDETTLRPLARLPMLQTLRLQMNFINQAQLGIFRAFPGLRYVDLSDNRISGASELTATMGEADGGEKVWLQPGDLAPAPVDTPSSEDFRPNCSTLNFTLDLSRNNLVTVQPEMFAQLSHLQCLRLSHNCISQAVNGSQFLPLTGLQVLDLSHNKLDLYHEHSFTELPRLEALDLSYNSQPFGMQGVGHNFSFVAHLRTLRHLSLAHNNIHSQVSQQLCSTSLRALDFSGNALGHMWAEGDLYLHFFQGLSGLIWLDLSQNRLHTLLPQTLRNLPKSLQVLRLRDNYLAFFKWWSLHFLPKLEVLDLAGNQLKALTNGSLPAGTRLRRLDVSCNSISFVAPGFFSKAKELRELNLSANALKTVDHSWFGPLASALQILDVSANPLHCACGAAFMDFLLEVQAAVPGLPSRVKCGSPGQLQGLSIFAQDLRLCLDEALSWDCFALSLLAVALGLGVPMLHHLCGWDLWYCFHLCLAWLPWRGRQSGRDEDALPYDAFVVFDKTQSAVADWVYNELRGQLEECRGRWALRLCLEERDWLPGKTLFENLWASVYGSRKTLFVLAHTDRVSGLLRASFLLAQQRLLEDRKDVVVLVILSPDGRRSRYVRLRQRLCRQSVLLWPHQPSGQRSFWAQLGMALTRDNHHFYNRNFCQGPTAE

Chain of human TLR7 (Q9NYK1 27-1049): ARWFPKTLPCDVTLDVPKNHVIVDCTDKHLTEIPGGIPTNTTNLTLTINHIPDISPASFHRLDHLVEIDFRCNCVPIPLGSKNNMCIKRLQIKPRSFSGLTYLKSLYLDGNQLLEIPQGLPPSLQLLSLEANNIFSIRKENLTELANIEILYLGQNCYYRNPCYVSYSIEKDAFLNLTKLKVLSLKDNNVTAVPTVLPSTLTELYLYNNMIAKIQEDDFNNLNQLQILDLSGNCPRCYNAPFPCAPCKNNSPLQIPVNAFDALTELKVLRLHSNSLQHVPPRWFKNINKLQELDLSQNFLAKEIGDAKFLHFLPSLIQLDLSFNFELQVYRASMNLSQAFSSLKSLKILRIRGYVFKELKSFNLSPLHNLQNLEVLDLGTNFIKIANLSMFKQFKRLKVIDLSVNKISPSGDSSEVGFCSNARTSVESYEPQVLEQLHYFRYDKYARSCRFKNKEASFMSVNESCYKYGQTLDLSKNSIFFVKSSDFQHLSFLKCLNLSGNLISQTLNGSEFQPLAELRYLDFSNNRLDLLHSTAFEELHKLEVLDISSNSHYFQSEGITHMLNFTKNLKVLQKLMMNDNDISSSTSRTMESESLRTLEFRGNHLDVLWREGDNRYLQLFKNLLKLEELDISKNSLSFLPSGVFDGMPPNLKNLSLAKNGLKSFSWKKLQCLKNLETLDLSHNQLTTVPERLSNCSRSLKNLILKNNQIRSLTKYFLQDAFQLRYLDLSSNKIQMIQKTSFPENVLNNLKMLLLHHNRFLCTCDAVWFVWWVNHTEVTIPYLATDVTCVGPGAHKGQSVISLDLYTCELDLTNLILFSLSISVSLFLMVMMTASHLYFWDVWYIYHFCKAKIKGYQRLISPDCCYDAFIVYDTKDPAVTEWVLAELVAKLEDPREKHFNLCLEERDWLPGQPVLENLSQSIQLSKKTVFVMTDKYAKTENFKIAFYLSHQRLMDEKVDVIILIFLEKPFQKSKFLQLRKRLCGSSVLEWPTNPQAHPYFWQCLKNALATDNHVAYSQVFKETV
Chain of human TLR8 (Q9NR97 27-1041): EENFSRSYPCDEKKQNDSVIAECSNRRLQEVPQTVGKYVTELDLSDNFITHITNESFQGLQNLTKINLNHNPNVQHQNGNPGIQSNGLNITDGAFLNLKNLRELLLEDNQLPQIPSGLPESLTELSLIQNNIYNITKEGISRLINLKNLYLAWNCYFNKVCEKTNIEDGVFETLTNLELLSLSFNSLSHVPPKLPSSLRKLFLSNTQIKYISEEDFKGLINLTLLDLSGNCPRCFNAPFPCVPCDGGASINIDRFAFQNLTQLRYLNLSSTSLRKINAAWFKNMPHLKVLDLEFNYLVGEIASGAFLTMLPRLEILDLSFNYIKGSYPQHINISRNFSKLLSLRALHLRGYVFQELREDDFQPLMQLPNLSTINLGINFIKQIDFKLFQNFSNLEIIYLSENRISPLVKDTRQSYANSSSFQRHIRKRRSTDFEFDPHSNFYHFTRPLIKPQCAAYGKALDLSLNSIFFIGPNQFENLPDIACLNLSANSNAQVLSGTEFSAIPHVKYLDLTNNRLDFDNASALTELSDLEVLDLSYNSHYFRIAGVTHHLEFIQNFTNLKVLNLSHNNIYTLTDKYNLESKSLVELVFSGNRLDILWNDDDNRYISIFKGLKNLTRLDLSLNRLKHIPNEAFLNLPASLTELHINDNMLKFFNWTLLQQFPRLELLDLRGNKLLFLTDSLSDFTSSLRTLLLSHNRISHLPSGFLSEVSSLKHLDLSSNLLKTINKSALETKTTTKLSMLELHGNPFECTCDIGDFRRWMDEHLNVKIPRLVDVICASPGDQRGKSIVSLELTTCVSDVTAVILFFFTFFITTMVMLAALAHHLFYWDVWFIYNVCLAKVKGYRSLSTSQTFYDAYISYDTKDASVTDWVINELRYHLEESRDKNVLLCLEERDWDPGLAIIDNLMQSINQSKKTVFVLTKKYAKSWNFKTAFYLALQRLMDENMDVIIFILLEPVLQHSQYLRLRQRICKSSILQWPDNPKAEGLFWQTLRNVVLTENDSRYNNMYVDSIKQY

IC50 (human TLR7) [µM]	IC50 (human TLR8) [µM]	IC50 (human TLR9) [µM]	SMILES
0.007	0.0026	2.57	Cc1cc(-c2[nH]c3ccc(C4CCN(Cc5c[nH]nn5)CC4)cc3c2C(C)C)c(F)cn1 [Example 691]
0.0008	0.0028	0.156	Cc1cc(-c2[nH]c3ccc(C4CCN(CCCN(C)C)CC4)cc3c2C(C)C)cc(C)n1 [Example 674, 3-(4-(2-(2,6-dimethylpyridin-4-yl)-3-isopropyl-1H-indol-5-yl)piperidin-1-yl)-N,N-dimethylpropan-1-amine]
0.0368	0.0164	1.19	Cc1cc(-c2[nH]c3ccc(C4CCN(C5CC(C)OC(C)C5)CC4)cc3c2C(C)C)ccn1 (stereo not drawn) [Example 712, 5-(1-(2,6-dimethyltetrahydro-2H-pyran-4-yl)piperidin-4-yl)-3-isopropyl-2-(2-methylpyridin-4-yl)-1H-indole]
0.073	0.162	16.7	Cc1cc(-c2[nH]c3ccc(C4CCN(C(=O)C5CNC(=O)C5)CC4)cc3c2C(C)C)ccn1 (stereo not drawn) [Example 612, 4-(4-(3-isopropyl-2-(2-methylpyridin-4-yl)-1H-indol-5-yl)piperidine-1-carbonyl)pyrrolidin-2-one]
0.0151	0.257	1.61	CNCC(=O)N1CCC(c2ccc3[nH]c(-c4cc(C5CC5)ncc4F)c(C(C)C)c3c2)CC1 [Example 518, 1-(4-(2-(2-cyclopropyl-5-fluoropyridin-4-yl)-3-isopropyl-1H-indol-5-yl)piperidin-1-yl)-2-(methylamino)ethan-1-one]
0.0157	0.0639	0.221	Cc1cc(-c2[nH]c3ccc(C4CCN(CC(=O)N(C)C)CC4)cc3c2CC(F)F)cc(C)n1 [Example 531, 2-(4-(3-(2,2-difluoroethyl)-2-(2,6-dimethylpyridin-4-yl)-1H-indol-5-yl)piperidin-1-yl)-N,N-dimethylacetamide]

More lines, now with the values behind:

SMILES	IC50 (human TLR7) [µM]	IC50 (human TLR8) [µM]	IC50 (human TLR9) [µM]
Cc1cc(-c2[nH]c3ccc(C4CCN(C(=O)CN5CCCC5C)CC4)cc3c2C(C)C)cc(C)n1 (stereo not drawn) [Example 366, 1-(4-(2-(2,6-dimethylpyridin-4-yl)-3-isopropyl-1H-indol-5-yl)piperidin-1-yl)-2-(2-methylpyrrolidin-1-yl)ethan-1-one]	0.0032	0.0109	0.37
Cc1cc(-c2[nH]c3ccc(C4CCN(C(=O)c5ccc6ccccn6c5=O)CC4)cc3c2C(C)C)cc(C)n1 [Example 145, 3-(4-(2-(2,6-dimethylpyridin-4-yl)-3-isopropyl-1H-indol-5-yl)piperidine-1-carbonyl)-4H-quinolizin-4-one]	0.0287	0.347	> 50
CCCNCC(=O)N1CCC(c2ccc3[nH]c(-c4cc(C)nc(C)c4)c(C(C)C)c3c2)CC1 [Example 348, 1-(4-(2-(2,6-dimethylpyridin-4-yl)-3-isopropyl-1H-indol-5-yl)piperidin-1-yl)-2-(propylamino)ethan-1-one]	0.0036	0.0113	0.425
Cc1cc(-c2[nH]c3ccc(C4CCN(C(=O)Cc5cn(C)cn5)CC4)cc3c2C(C)C)cc(C)n1 [Example 137, 1-(4-(2-(2,6-dimethylpyridin-4-yl)-3-isopropyl-1H-indol-5-yl)piperidin-1-yl)-2-(1-methyl-1H-imidazol-4-yl)ethan-1-one]	0.0082	0.0391	1.79
Cc1cc(-c2[nH]c3ccc(C4CCN(C(=O)CNCC5CCCO5)CC4)cc3c2C(C)C)cc(C)n1 (stereo not drawn) [Example 373, 1-(4-(2-(2,6-dimethylpyridin-4-yl)-3-isopropyl-1H-indol-5-yl)piperidin-1-yl)-2-(((tetrahydrofuran-2-yl)methyl)amino)ethan-1-one]	0.0025	0.0175	0.429
Cc1cc(-c2[nH]c3ccc(C4CCN(CC(=O)N5CCOC[C@H]5CO)CC4)cc3c2C(C)C)cc(C)n1 [Example 304, (R)-2-(4-(2-(2,6-dimethylpyridin-4-yl)-3-isopropyl-1H-indol-5-yl)piperidin-1-yl)-1-(3-(hydroxymethyl)morpholino)ethan-1-one]	0.0103	0.0426	0.441
